The subject of one test is S. aureus strain RN4220. As to the kind of experiment: MIC determination, wildtype strain RN4220 (96-well dilution series, Mueller-Hinton broth). In kind it is cell-based, Staphylococcus aureus. The note with it: for MIC: Staphylococcus aureus, RN4220. How it is done:
(§1) The majority of mutants were obtained by selection of the S. aureus strain RN4220 on agar plates in presence of an antibiotic. Briefly, the minimal inhibitory concentration (“MIC”) of the wildtype strain RN4220 was determined. For this purpose a liquid culture with an OD of 0.5 was added as a dilution of 1:100 in Mueller-Hinton broth to each well of a 96-well plate containing a dilution series of a certain antibiotic. The 96-well plate was incubated at 37° C. overnight. The lowest antibiotic concentration where no growth of bacteria could be determined is defined as the MIC value of this strain.

The subject of test [1] is mutants obtained by selection of the S. aureus strain RN4220. As to the kind of experiment: MIC determination, mutants obtained by selection on antibiotic agar. It counts as cell-based, Staphylococcus aureus. The note with it: for MIC of the mutant: Table 1, mutant resistant to the antibiotic of the same line; for MIC: Staphylococcus aureus, read-out: MIC of the mutant. As for the experimental part:
as §1
To select first-step mutants agar plates containing an antibiotic concentration of 0.5×-, 1×-, 2×-, 3×- and 5×MIC were prepared and approximately 1×10^8 cells were plated and incubated overnight. Colonies grown on the plate with the highest antibiotic concentration were subcultured in liquid MH-media containing the same concentration of antibiotic to avoid loss of resistance. This culture was used to prepare a 25% glycerol stock that is stored at −80° C. To test the stability of resistance each strain was subcultured again either in presence of an antibiotic or in media without any antibiotics. After that both cultures were plated on agar plates. In case of a stable mutation that leads to the resistance no difference in growth behavior of the liquid culture or the cultures plated on agar plates should be noticed. The MIC of the mutants was determined.
After the successful selection of eight first-step mutants the experiment was repeated in a same manner as described above to obtain mutants having a resistance to much higher concentration of antibiotic. With the exception of the actinomycin D mutant, additional mutants were obtained. Again the MIC-values for the new mutants were determined.

Test [2] relates to strains NRS106, NRS107, NRS128 and NRS129. The experiment in a line: MIC determination, mutants purchased from NARSA. The conditions noted are these: for MIC: Staphylococcus aureus, read-out: MIC of the mutant. It counts as cell-based, Staphylococcus aureus. How it is done: Four strains from NARSA (Network on Antimicrobial Resistance in Staphylococcus aureus) could be purchased. The strains NRS106, NRS107, NRS128 and NRS129 show resistances against the antibiotics gentamicin, mupirocin, erythromycin and chloramphenicol.
as §1

For test [3], the system named is ten strains of Staphylococcus aureus, each resistant to a different, known, antibiotic. The experiment in a line: Small scale experiment: panel of ten resistant strains in a microplate. It counts as cell-based. The note with it: Example 1, FIG. 1. How it is done: In a small scale experiment, ten strains of Staphylococcus aureus, each resistant to a different, known, antibiotic, were generated. These strains were added to the wells of a microplate. […] Thus, it was determined that each strain of Staphylococcus aureus was resistant to at least one of ten known antibiotics (FIG. 1).
In this way, it was shown that linezolid was not part of the initial set of ten antibiotics. In other words, the panel of ten Staphylococcus aureus strains used allowed dereplication of the ten antibiotics with no need for analytical chemistry. This experiment establishes that the panel of ten strains can be scaled up to several thousand strains, which will be collectively resistant to as many known antibiotics, and screen sources of unknown compounds (e.g., microbial or eukaryotic cell spent media, cell and tissue extracts, combinatorial libraries, etc.). Using such a large scale screen allows identification of a source containing an antimicrobial activity that is unique from the thousands of known antibiotics, and thus a likely source of a novel antibiotic. Similarly, and using either microbial spent media or individual compounds from chemical libraries, a search can be performed for novel compounds with anticancer, anti-inflammatory, or other desired properties.

[4] abbreviates: Table 1, 37° C. overnight, read-out: MIC of wildtype RN4220.
Where [5] appears, read: Table 2, read-out: MIC of wilcitype RN4220.

A word on the MIC: it is the lowest concentration that inhibits growth of the organism.

Where two headings read alike, the source gives them in different places. Starred links: 1 amine or outer side, 2 acyl side, 3 side chain; linkers in the order of their positions; H or OH if unused. Positions of bridges follow the written chain, without caps; N, C: chain ends. Non-standard residues stand in square brackets, D forms with d. Residues, ends and D or L forms follow the SMILES beside them. Chains are numbered I, II in the order given. Actinocin(9to1) = Cc1c2oc3c(C)ccc(C(=O)[*:1])c3nc-2c(C(=O)[*:2])c(N)c1=O; NMeV = CN[C@H](C(=O)O)C(C)C; Sar = CNCC(=O)O

For `Cc1c2oc3c(C)ccc(C(=O)N[C@@H]4C(=O)N[C@H](C(C)C)C(=O)N5CCC[C@H]5C(=O)N(C)CC(=O)N(C)[C@@H](C(C)C)C(=O)O[C@@H]4C)c3nc-2c(C(=O)N[C@@H]2C(=O)N[C@H](C(C)C)C(=O)N3CCC[C@H]3C(=O)N(C)CC(=O)N(C)[C@@H](C(C)C)C(=O)O[C@@H]2C)c(N)c1=O` [Actinomycin D] (I: T[dV]P[Sar][NMeV] / II: T[dV]P[Sar][NMeV]; ester I:1-I:C, II:1-II:C; linker I:N-II:N via Actinocin(9to1)), the “MIC of wildtype RN4220” value in the test with S. aureus strain RN4220 (Table 1, 37° C. overnight) came out at 1.56 µg/mL. For the same molecule, the “MIC of the mutant” value in test [1] turned out to be 12.48 µg/mL.
As to `CC1(C)S[C@@H]2[C@H](NC(=O)[C@H](N)c3ccccc3)C(=O)N2[C@H]1C(=O)O` [Ampicillin], the minimal inhibitory concentration (MIC) in the test with S. aureus strain RN4220 (setting [4]) came out at 0.2 µg/mL; in test [1], 300 µg/mL.
Regarding `O=C(N[C@H](CO)[C@H](O)c1ccc([N+](=O)[O-])cc1)C(Cl)Cl` [Chloramphenicol], the MIC in the test with S. aureus strain RN4220 (setting [5]) is 62.5 µg/mL; in test [2], 12.5 µg/mL.
Turning to `CC[C@H]1OC(=O)[C@H](C)[C@@H](O[C@H]2C[C@@](C)(OC)[C@@H](O)[C@H](C)O2)[C@H](C)[C@@H](O[C@@H]2O[C@H](C)C[C@H](N(C)C)[C@H]2O)[C@](C)(O)C[C@@H](C)C(=O)[C@H](C)[C@@H](O)[C@]1(C)O` [Erythromycin], the MIC in test [2] came out at 0.8 µg/mL.
As for `C/C(=C\C(=O)OCCCCCCCCC(=O)O)C[C@@H]1OC[C@H](C[C@@H]2O[C@H]2[C@@H](C)[C@H](C)O)[C@@H](O)[C@H]1O` [Mupirocin], the MIC in the test with S. aureus strain RN4220 (setting [5]) was determined as 500 µg/mL; in test [2], 25 µg/mL.
In the case of `CO[C@@H]1[C@@H](OC(N)=O)[C@@H](O)[C@H](Oc2ccc3c(O)c(NC(=O)c4ccc(O)c(CC=C(C)C)c4)c(=O)oc3c2C)OC1(C)C` [Novobiocin], the MIC with S. aureus strain RN4220 (setting [4]) was determined as 0.05 µg/mL; in test [1] it was 12.5 µg/mL.
`CC1COc2c(N3CCN(C)CC3)c(F)cc3c(=O)c(C(=O)O)cn1c23` (centres unmarked) [Ofloxacin]: the MIC turned out to be 0.4 µg/mL with S. aureus strain RN4220 (setting [4]) and 1.5 µg/mL in test [1].
As for `CO[C@H]1/C=C/O[C@@]2(C)Oc3c(C)c(O)c4c(O)c(c(/C=N/N5CCN(C)CC5)c(O)c4c3C2=O)NC(=O)/C(C)=C\C=C\[C@H](C)[C@H](O)[C@@H](C)[C@@H](O)[C@@H](C)[C@H](OC(C)=O)[C@@H]1C` [Rifampicin], the minimal inhibitory concentration (MIC) in the test with S. aureus strain RN4220 (setting [4]) was determined as 0.008 µg/mL; in test [1], 250 µg/mL.
For `[H]/N=C(/N)N[C@H]1[C@H](O)[C@@H](O)[C@H](O[C@@H]2O[C@@H](C)[C@](O)(C=O)[C@H]2O[C@@H]2O[C@@H](CO)[C@H](O)[C@@H](O)[C@@H]2NC)[C@@H](N/C(N)=N\[H])[C@@H]1O` [Streptomycin], the MIC in the test on S. aureus strain RN4220 (setting [4]) was determined as 25 µg/mL.
Take `CN(C)[C@@H]1C(=O)C(C(N)=O)=C(O)[C@@]2(O)C(=O)C3=C(O)c4c(O)cccc4[C@@](C)(O)[C@H]3C[C@@H]12` [Tetracyclin]: in the test with S. aureus strain RN4220 (Table 1, 37° C. overnight), the “MIC of wildtype RN4220” value worked out at 0.1 µg/mL. Besides, in test [1], the “MIC of the mutant” value amounted to 3.9 µg/mL.
For `CN[C@H](CC(C)C)C(=O)N[C@H]1C(=O)N[C@@H](CC(N)=O)C(=O)N[C@H]2C(=O)N[C@H]3C(=O)N[C@H](C(=O)N[C@H](C(=O)O)c4cc(O)cc(O)c4-c4cc3ccc4O)[C@H](O)c3ccc(c(Cl)c3)Oc3cc2cc(c3O[C@@H]2O[C@H](CO)[C@@H](O)[C@H](O)[C@H]2O[C@H]2C[C@](C)(N)[C@H](O)[C@H](C)O2)Oc2ccc(cc2Cl)[C@H]1O` [Vancomycin], the MIC with S. aureus strain RN4220 (setting [4]) was determined as 1.56 µg/mL; in test [1], 2000 µg/mL.
Turning to `CC(=O)NC[C@H]1CN(c2ccc(N3CCOCC3)c(F)c2)C(=O)O1` [linezolid], in test [3], the “microbial growth in the wells containing the ten resistant strains” value is listed as “suppressed the growth in all the wells”.
Take Gentamicin: the “MIC of wilcitype RN4220” value with S. aureus strain RN4220 (Table 2) was found to be 250 µg/mL. In addition, the “MIC of the mutant” value in test [2] (Table 2, NARSA strain named in the same line) worked out at 0.8 µg/mL.

For the origin of these results see patent publication US9994890B1, “Methods of natural product drug discovery” (priority 2012, dated 2018).
